Results: ChEMBL document CHEMBL1201862, “PubChem BioAssay data set” (2004)
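Step 1: Grow cells in 96-well plates. Step 2: Expose to compound for 48 hours at 5 concentrations. Step 3: Interpolate endpoints linearly; if unreached, use highest concentration. The concentration for 50% growth inhibition is given as GI50.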 The source made the active and inactive calls. Cut-off read from the data, not from the text of the source: active = GI50 up to about 1.1 µM and inactive = higher.

What was measured:
Assay in all cases: NCI tumour cell line growth inhibition, 48 h
U-251 = tested on: U-251
SNB-75 = tested on: SNB-75
NCI-H226 = tested on: NCI-H226
CCRF-CEM = tested on: CCRF-CEM
SN12C = tested on: SN12C
HCC 2998 = tested on: HCC 2998
HOP-92 = tested on: HOP-92
UACC-257 = tested on: UACC-257
NCI-H460 = tested on: NCI-H460
SK-OV-3 = tested on: SK-OV-3
RXF 393 = tested on: RXF 393
SNB-19 = tested on: SNB-19
Hs-578T = tested on: Hs-578T
MDA-N = tested on: MDA-N
OVCAR-3 = tested on: OVCAR-3
UACC-62 = tested on: UACC-62
OVCAR-5 = tested on: OVCAR-5
Malme-3M = tested on: Malme-3M

Measured: GI50

CCOC(=O)C1(CO)CSCCSC1
inactive: U-251 > 100 µM | SNB-75 > 100 µM | NCI-H226 > 100 µM | CCRF-CEM > 100 µM | SN12C > 100 µM | HCC 2998 > 100 µM | HOP-92 > 100 µM | UACC-257 > 100 µM | NCI-H460 > 100 µM | SK-OV-3 > 100 µM | RXF 393 > 100 µM | SNB-19 > 100 µM | Hs-578T > 100 µM | MDA-N > 100 µM

C/C(CC(=O)Nc1ccc(Cl)cc1)=N\NC(=O)C[n+]1ccccc1
inactive: OVCAR-3 > 100 µM | U-251 > 100 µM | UACC-62 > 100 µM | SNB-75 > 100 µM | NCI-H226 > 100 µM | CCRF-CEM > 100 µM | HCC 2998 > 100 µM | HOP-92 > 100 µM | UACC-257 > 100 µM | OVCAR-5 > 100 µM | NCI-H460 > 100 µM | SK-OV-3 > 100 µM | RXF 393 > 100 µM | Malme-3M > 100 µM

c1ccc(CSCCC(SCc2ccccc2)SCc2ccccc2)cc1
inactive: OVCAR-3 > 10 µM | U-251 > 10 µM | UACC-62 > 10 µM | SNB-75 > 10 µM | NCI-H226 > 10 µM | CCRF-CEM > 10 µM | SN12C > 10 µM | HCC 2998 > 10 µM | HOP-92 9.66 µM | UACC-257 > 10 µM | NCI-H460 > 10 µM | SK-OV-3 > 10 µM | RXF 393 > 10 µM | Malme-3M > 10 µM | SNB-19 > 10 µM | Hs-578T > 10 µM | MDA-N > 10 µM

CC(=O)CCC#Cc1ccccc1C(=O)C(C)=[N+]=[N-]
inactive: OVCAR-3 28.5 µM | U-251 36.8 µM | UACC-62 16.1 µM | SNB-75 15.6 µM | NCI-H226 48.5 µM | CCRF-CEM 6.08 µM | SN12C 49.1 µM | HCC 2998 > 100 µM | HOP-92 38 µM | UACC-257 53 µM | OVCAR-5 > 100 µM | NCI-H460 37.4 µM | SK-OV-3 57.7 µM | RXF 393 23.6 µM | Malme-3M 19.6 µM | SNB-19 > 100 µM

O/N=C1/CC2(N3CCOCC3)C3CC/C(=N\O)C2CC1(Cc1ccccc1)C3 (centres undefined)
inactive: OVCAR-3 > 100 µM | U-251 > 100 µM | UACC-62 > 100 µM | SNB-75 36.1 µM | NCI-H226 > 100 µM | CCRF-CEM > 100 µM | SN12C > 100 µM | HCC 2998 > 100 µM | UACC-257 66.8 µM | OVCAR-5 > 100 µM | NCI-H460 > 100 µM | SK-OV-3 > 100 µM | RXF 393 18.3 µM | Malme-3M > 100 µM | SNB-19 > 100 µM | MDA-N > 100 µM

C[C@H]1C[C@H]2[C@@H]3CCC4=CC(=O)C=C[C@]4(C)C3=CC[C@]2(C)[C@@]1(O)C(=O)CO
inactive: U-251 > 100 µM | UACC-62 > 100 µM | SNB-75 > 100 µM | NCI-H226 > 100 µM | CCRF-CEM 66.8 µM | SN12C > 100 µM | HCC 2998 > 100 µM | HOP-92 > 100 µM | UACC-257 > 100 µM | OVCAR-5 > 100 µM | NCI-H460 > 100 µM | SK-OV-3 > 100 µM | RXF 393 > 100 µM | Malme-3M > 100 µM | SNB-19 > 100 µM | Hs-578T > 100 µM | MDA-N > 100 µM

COC(=O)[C@@H]1CN(C(=O)c2ccccc2)C(=O)N1
inactive: OVCAR-3 > 100 µM | U-251 > 100 µM | UACC-62 > 100 µM | SNB-75 > 100 µM | NCI-H226 > 100 µM | CCRF-CEM > 100 µM | SN12C > 100 µM | HOP-92 > 100 µM | UACC-257 > 100 µM | OVCAR-5 > 100 µM | NCI-H460 > 100 µM | RXF 393 > 100 µM | Malme-3M > 100 µM | SNB-19 > 100 µM | Hs-578T > 100 µM | MDA-N > 100 µM

O=C1CC(c2ccc(Cl)cc2)Oc2ccccc21 (centres undefined)
inactive: U-251 31.8 µM | UACC-62 20.6 µM | SNB-75 13.6 µM | NCI-H226 4.75 µM | CCRF-CEM 11 µM | HCC 2998 25.6 µM | HOP-92 24.7 µM | UACC-257 40.3 µM | NCI-H460 19.8 µM | SK-OV-3 19.4 µM | SNB-19 26.8 µM | Hs-578T 15 µM

Nc1ncc(Cc2ccc3c(c2)OCO3)c(N)n1
inactive: OVCAR-3 > 100 µM | U-251 > 100 µM | UACC-62 > 100 µM | NCI-H226 > 100 µM | CCRF-CEM > 100 µM | SN12C > 100 µM | HCC 2998 5.83 µM | HOP-92 53.5 µM | UACC-257 > 100 µM | OVCAR-5 > 100 µM | NCI-H460 > 100 µM | SK-OV-3 > 100 µM | RXF 393 > 100 µM | Malme-3M > 100 µM | SNB-19 > 100 µM | Hs-578T > 100 µM | MDA-N > 100 µM
